Assay results reported in EP4745137A1 (Gluetacs Therapeutics (Shanghai) Co., Ltd., priority 2023, dated 2025).

Key:
IKZF3 = target: T1, IKZF3 (Homo sapiens, UniProt Q96SW2+Q9UKT9); test: Western-blot assay of substrate protein degradation in hPBMCs, IKZF3; format: cell-based; details: 24 hours of compound treatment, compounds tested at 50 nM and 500 nM (concentration of the table not stated)
T1 construct: endogenous in cells; host or cells: hPBMCs (Milecell Biotechnologies)

WEE1 = target: T2, WEE1 (Homo sapiens, UniProt P30291+Q96SW2); test: Western-blot assay of substrate protein degradation in hPBMCs, WEE1; format: cell-based; details: 24 hours of compound treatment, compounds tested at 50 nM and 500 nM (concentration of the table not stated)
T2 construct: endogenous in cells; host or cells: hPBMCs (Milecell Biotechnologies)

[1] = target: T3, human Cereblon WT GST-tagged protein (Homo sapiens, UniProt Q96SW2); test: CRBN-binding affinity by HTRF (CEREBLON BINDING kit); details: HTRF inhibitory activity, CEREBLON BINDING kit; read-out: HTRF IC50
T3 construct: purchased CISBIO 64BDCRBNPEH
T3 sequence (Q96SW2 whole entry): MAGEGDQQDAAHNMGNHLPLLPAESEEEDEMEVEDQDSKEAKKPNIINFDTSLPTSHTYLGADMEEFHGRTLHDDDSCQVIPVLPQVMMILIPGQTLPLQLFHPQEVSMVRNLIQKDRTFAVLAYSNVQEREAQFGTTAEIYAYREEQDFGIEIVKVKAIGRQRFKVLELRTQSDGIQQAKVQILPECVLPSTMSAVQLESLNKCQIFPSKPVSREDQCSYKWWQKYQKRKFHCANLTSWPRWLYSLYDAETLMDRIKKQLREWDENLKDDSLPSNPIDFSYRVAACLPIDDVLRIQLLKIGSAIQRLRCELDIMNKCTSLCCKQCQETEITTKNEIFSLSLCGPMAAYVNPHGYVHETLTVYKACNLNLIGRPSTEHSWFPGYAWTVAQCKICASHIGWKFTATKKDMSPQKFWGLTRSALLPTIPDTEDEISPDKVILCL

IKZF1 = target: T4, IKZF1 (Homo sapiens, UniProt Q13422+Q96SW2); test: Western-blot assay of substrate protein degradation in hPBMCs, IKZF1; format: cell-based; details: 24 hours of compound treatment, compounds tested at 50 nM and 500 nM (concentration of the table not stated)
T4 construct: endogenous in cells; host or cells: hPBMCs (Milecell Biotechnologies)
T4 sequence (Q13422 whole entry): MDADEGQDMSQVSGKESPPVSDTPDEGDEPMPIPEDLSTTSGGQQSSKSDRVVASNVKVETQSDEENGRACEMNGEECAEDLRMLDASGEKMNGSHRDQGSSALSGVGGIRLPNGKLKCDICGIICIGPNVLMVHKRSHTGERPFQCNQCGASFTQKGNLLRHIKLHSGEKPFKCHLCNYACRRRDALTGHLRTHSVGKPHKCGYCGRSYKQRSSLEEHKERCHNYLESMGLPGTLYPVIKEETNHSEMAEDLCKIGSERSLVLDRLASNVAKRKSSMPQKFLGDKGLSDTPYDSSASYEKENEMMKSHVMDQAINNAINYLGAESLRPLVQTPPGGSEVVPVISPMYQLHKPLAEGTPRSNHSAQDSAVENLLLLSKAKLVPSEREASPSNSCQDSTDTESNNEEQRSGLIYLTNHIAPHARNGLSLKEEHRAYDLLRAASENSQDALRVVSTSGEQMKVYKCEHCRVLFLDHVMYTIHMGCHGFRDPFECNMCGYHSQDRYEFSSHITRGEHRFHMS
T4 sequence (Q96SW2 whole entry): as the sequence (Q96SW2 whole entry) above
T4 sequence (Q16531 whole entry partner): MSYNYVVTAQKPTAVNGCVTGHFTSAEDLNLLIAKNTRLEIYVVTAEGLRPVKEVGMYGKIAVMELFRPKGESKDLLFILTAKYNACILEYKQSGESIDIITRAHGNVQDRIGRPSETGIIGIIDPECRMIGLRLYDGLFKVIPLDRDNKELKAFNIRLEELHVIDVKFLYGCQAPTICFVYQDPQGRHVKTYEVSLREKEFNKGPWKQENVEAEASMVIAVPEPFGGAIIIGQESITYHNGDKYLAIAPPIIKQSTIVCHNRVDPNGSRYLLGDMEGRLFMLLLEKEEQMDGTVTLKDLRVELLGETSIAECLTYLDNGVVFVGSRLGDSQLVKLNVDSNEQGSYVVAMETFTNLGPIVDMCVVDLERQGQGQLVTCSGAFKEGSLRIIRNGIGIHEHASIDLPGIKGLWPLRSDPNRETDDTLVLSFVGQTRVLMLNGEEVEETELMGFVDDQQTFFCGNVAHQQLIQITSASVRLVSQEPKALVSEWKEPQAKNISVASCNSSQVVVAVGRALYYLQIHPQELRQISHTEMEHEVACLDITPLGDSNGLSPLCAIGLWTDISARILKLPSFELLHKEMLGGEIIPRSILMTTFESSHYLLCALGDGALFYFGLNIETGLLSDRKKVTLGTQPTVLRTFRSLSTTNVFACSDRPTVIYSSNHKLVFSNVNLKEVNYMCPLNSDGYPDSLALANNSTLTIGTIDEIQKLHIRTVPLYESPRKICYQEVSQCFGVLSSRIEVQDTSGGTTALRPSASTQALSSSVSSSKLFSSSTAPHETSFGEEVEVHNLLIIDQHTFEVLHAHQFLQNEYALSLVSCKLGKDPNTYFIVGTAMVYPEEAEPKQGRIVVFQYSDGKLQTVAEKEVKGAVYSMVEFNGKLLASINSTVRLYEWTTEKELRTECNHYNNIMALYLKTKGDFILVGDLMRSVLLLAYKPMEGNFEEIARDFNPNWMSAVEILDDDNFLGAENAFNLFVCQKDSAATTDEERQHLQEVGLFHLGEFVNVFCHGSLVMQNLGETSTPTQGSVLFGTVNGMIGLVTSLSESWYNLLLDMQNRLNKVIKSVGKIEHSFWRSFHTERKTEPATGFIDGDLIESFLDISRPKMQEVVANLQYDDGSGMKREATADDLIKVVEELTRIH

MM.1S = test: Tumor cell proliferation inhibition (CellTiter-Meiluncell Luminescent Cell Viability Assay), MM.1S; details: Homo sapiens, MM1.S, read-out: inhibitory activity (IC50, nM) against tumor cells proliferation, MM.1S
CK1α = target: T5, CK1α (Homo sapiens, UniProt P48729+Q96SW2); test: Western-blot assay of substrate protein degradation in hPBMCs, CK1α; format: cell-based; details: 24 hours of compound treatment, compounds tested at 50 nM and 500 nM (concentration of the table not stated)
T5 construct: endogenous in cells; host or cells: hPBMCs (Milecell Biotechnologies)
T5 sequence (P48729 whole entry): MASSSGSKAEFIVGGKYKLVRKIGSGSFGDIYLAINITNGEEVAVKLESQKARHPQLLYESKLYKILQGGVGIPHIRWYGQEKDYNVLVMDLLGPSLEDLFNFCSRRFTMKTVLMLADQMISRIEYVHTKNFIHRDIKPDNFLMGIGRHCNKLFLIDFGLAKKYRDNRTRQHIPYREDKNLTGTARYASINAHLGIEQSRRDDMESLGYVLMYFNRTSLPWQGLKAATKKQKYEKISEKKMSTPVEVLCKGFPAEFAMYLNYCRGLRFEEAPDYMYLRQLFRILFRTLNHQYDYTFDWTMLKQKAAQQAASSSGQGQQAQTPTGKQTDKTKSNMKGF
T5 sequence (Q96SW2 whole entry): as the sequence (Q96SW2 whole entry) above
T5 sequence (Q16531 whole entry partner): as the sequence (Q16531 whole entry partner) above

NCI-H1975 = test: Tumor cell proliferation inhibition (CellTiter-Meiluncell Luminescent Cell Viability Assay), NCI-H1975; details: Homo sapiens, NCI-H1975, read-out: inhibitory activity (IC50, nM) against tumor cells proliferation, H1975
GSPT1 = target: T6, GSPT1 (Homo sapiens, UniProt P15170+Q96SW2); test: Western-blot assay of substrate protein degradation in hPBMCs, GSPT1; format: cell-based; details: 24 hours of compound treatment, compounds tested at 50 nM and 500 nM (concentration of the table not stated)
T6 construct: endogenous in cells; host or cells: hPBMCs (Milecell Biotechnologies)
T6 sequence (P15170 whole entry): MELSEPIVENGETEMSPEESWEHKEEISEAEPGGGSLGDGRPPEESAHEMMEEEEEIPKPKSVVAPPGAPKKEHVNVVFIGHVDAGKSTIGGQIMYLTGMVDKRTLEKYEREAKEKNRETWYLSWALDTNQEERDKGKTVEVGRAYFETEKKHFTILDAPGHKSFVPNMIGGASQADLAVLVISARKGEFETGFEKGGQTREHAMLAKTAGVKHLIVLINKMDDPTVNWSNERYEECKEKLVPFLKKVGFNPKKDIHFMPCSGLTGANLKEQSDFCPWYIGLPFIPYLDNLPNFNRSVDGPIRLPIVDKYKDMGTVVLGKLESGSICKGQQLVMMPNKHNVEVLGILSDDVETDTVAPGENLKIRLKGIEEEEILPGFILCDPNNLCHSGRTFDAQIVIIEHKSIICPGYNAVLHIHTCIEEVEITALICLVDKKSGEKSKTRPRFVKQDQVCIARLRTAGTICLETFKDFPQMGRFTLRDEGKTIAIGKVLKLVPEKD
T6 sequence (Q96SW2 whole entry): as the sequence (Q96SW2 whole entry) above
T6 sequence (Q16531 whole entry partner): as the sequence (Q16531 whole entry partner) above

IKZF2 = target: T7, IKZF2 (Homo sapiens, UniProt Q96SW2+Q9UKS7); test: Western-blot assay of substrate protein degradation in hPBMCs, IKZF2; format: cell-based; details: 24 hours of compound treatment, compounds tested at 50 nM and 500 nM (concentration of the table not stated)
T7 construct: endogenous in cells; host or cells: hPBMCs (Milecell Biotechnologies)
T7 sequence (Q9UKS7 whole entry): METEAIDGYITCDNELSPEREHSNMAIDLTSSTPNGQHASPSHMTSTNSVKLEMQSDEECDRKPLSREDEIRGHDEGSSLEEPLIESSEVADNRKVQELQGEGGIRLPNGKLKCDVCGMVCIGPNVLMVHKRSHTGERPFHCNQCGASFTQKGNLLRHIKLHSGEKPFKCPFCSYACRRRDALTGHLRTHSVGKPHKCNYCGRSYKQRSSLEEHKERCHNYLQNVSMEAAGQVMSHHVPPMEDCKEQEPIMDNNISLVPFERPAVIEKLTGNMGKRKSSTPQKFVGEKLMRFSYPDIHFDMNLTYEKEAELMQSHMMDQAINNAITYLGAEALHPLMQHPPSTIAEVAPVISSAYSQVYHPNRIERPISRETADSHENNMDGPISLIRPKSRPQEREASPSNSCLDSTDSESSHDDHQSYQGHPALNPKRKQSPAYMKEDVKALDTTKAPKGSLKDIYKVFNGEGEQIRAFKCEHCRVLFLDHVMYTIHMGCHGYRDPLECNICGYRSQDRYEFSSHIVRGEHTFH
T7 sequence (Q96SW2 whole entry): as the sequence (Q96SW2 whole entry) above
T7 sequence (Q16531 whole entry partner): as the sequence (Q16531 whole entry partner) above

Jurkat = test: Tumor cell proliferation inhibition (CellTiter-Meiluncell Luminescent Cell Viability Assay), Jurkat; details: Homo sapiens, read-out: inhibitory activity (IC50, nM) against tumor cells proliferation, Jurkat
SR = test: Tumor cell proliferation inhibition (CellTiter-Meiluncell Luminescent Cell Viability Assay), SR; details: Homo sapiens, read-out: inhibitory activity (IC50, nM) against tumor cells proliferation, SR
TMD8 = test: Tumor cell proliferation inhibition (CellTiter-Meiluncell Luminescent Cell Viability Assay), TMD8; details: Homo sapiens, TMD8, read-out: inhibitory activity (IC50, nM) against tumor cells proliferation, TMD8

T1 sequence (Q9UKT9 whole entry): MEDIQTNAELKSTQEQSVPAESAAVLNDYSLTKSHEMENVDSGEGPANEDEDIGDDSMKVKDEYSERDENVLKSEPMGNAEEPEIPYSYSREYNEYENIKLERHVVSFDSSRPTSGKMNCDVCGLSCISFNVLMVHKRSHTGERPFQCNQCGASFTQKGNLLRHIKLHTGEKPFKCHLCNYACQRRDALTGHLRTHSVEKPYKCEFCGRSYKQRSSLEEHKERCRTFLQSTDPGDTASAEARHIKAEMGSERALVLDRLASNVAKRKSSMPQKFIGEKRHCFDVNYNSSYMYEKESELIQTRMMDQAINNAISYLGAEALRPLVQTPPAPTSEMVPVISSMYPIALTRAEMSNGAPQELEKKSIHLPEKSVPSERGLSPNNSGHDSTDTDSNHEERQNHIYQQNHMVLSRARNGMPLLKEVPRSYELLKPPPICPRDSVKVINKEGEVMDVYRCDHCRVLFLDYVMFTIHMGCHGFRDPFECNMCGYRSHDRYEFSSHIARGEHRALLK
T1 sequence (Q96SW2 whole entry): as the sequence (Q96SW2 whole entry) above
T1 sequence (Q16531 whole entry partner): as the sequence (Q16531 whole entry partner) above

Row | Structure (SMILES) | IKZF3 substrate protein remaining % (IKZF3) | Weel substrate protein remaining % (WEE1) | IC50 [1] [nM] | IKZF 1 substrate protein remaining % (IKZF1) | IC50 (MM.1S) [nM] | CK1a substrate protein remaining % (CK1α) | IC50 (NCI-H1975) [nM] | GSPT1 substrate protein remaining % (GSPT1) | IKZF2 substrate protein remaining % (IKZF2) | IC50 (Jurkat) [nM] | IC50 (SR) [nM] | IC50 (TMD8) [nM]
1 | O=C1CCC(N2Cc3cc(CN4C5CCC4CN(c4cccc(Cl)c4Cl)C5)ccc3C2=O)C(=O)N1 (stereo not drawn) [GT-04855, 3-(5-((3-(2,3-dichlorophenyl)-3,8-diazabicyclo[3.2.1]octan-8-yl)methyl)-1-oxoisoindolin-2-yl)piperidine-2,6-dione] | A (0% ≤ substrate protein remaining % ≤ 80%) | A (0% ≤ substrate protein remaining % ≤ 80%) | < 500 | A (0% ≤ substrate protein remaining % ≤ 80%) | 5 to 10 | B (80%< substrate protein remaining %≤ 100%) | 50 to 100 | A (0% ≤ substrate protein remaining % ≤ 80%) | A (0% ≤ substrate protein remaining % ≤ 80%) | 50 to 100 | 500 to 1000 | –
2 | Cn1cc(C2CCN(Cc3ccc4c(c3)CN(C3CCC(=O)NC3=O)C4=O)CC2)c2ccc(F)cc21 (stereo not drawn) [GT-04858, 3-(5-((4-(6-fluoro-1-methyl-1H-indol-3-yl)piperidin-1-yl)methyl)-1-oxoisoindolin-2-yl)piperidine-2,6-dione] | A (0% ≤ substrate protein remaining % ≤ 80%) | A (0% ≤ substrate protein remaining % ≤ 80%) | < 500 | A (0% ≤ substrate protein remaining % ≤ 80%) | < 1 | B (80%< substrate protein remaining %≤ 100%) | 1 to 5 | A (0% ≤ substrate protein remaining % ≤ 80%) | A (0% ≤ substrate protein remaining % ≤ 80%) | 1 to 5 | 5 to 10 | –
3 | O=C1CCC(N2Cc3cc(CN4CC=C(c5cccc6c(F)cccc56)CC4)ccc3C2=O)C(=O)N1 (stereo not drawn) [GT-04902, 3-(5-((4-(5-fluoronaphthalen-1-yl)-3,6-dihydropyridin-1(2H)-yl)methyl)-1-oxoisoindolin-2-yl)piperidine-2,6-dione] | A (0% ≤ substrate protein remaining % ≤ 80%) | A (0% ≤ substrate protein remaining % ≤ 80%) | < 500 | A (0% ≤ substrate protein remaining % ≤ 80%) | < 1 | A (0% ≤ substrate protein remaining % ≤ 80%) | 1 to 5 | A (0% ≤ substrate protein remaining % ≤ 80%) | A (0% ≤ substrate protein remaining % ≤ 80%) | 1 to 5 | 5 to 10 | –
4 | O=C1CCC(N2Cc3cc(CN4CC=C(c5ncnc6sc7c(c56)CCC7)CC4)ccc3C2=O)C(=O)N1 (stereo not drawn) [GT-04934, 3-(5-((4-(6,7-dihydro-5H-cyclopenta[4,5]thieno[2,3-d]pyrimidin-4-yl)-3,6-dihydropyridin-1(2H)-yl)methyl)-1-oxoisoindolin-2-yl)piperidine-2,6-dione] | A (0% ≤ substrate protein remaining % ≤ 80%) | A (0% ≤ substrate protein remaining % ≤ 80%) | < 500 | A (0% ≤ substrate protein remaining % ≤ 80%) | < 1 | A (0% ≤ substrate protein remaining % ≤ 80%) | 50 to 100 | A (0% ≤ substrate protein remaining % ≤ 80%) | A (0% ≤ substrate protein remaining % ≤ 80%) | 10 to 50 | 100 to 500 | –
5 | CC(C)c1cc2c(C3=CCN(Cc4ccc5c(c4)CN(C4CCC(=O)NC4=O)C5=O)CC3)ncnc2s1 (stereo not drawn) [GT-04935, 3-(5-((4-(6-isopropylthieno[2,3-d]pyrimidin-4-yl)-3,6-dihydropyridin-1(2H)-yl)methyl)-1-oxoisoindolin-2-yl)piperidine-2,6-dione] | A (0% ≤ substrate protein remaining % ≤ 80%) | A (0% ≤ substrate protein remaining % ≤ 80%) | < 500 | A (0% ≤ substrate protein remaining % ≤ 80%) | < 1 | A (0% ≤ substrate protein remaining % ≤ 80%) | 1 to 5 | A (0% ≤ substrate protein remaining % ≤ 80%) | A (0% ≤ substrate protein remaining % ≤ 80%) | 1 to 5 | 10 to 50 | –
6 | O=C1CCC(N2Cc3cc(CN4CC=C(c5ncnc6sc(-c7ccccc7)cc56)CC4)ccc3C2=O)C(=O)N1 (stereo not drawn) [GT-05101, 3-(1-oxo-5-((4-(6-phenylthieno[2,3-d]pyrimidin-4-yl)-3,6-dihydropyridin-1(2H)-yl)methyl)isoindolin-2-yl)piperidine-2,6-dione] | A (0% ≤ substrate protein remaining % ≤ 80%) | A (0% ≤ substrate protein remaining % ≤ 80%) | 500 to 1000 | A (0% ≤ substrate protein remaining % ≤ 80%) | < 1 | B (80%< substrate protein remaining %≤ 100%) | 1 to 5 | A (0% ≤ substrate protein remaining % ≤ 80%) | A (0% ≤ substrate protein remaining % ≤ 80%) | 1 to 5 | 5 to 10 | –
7 | O=C1CCC(N2Cc3cc(CN4CC=C(c5ncnc6sc7c(c56)CCCC7)CC4)ccc3C2=O)C(=O)N1 (stereo not drawn) [GT-05266, 3-(1-oxo-5-((4-(5,6,7,8-tetrahydrobenzo[4,5]thieno[2,3-d]pyrimidin-4-yl)-3,6-dihydropyridin-1(2H)-yl)methyl)isoindolin-2-yl)piperidine-2,6-dione] | A (0% ≤ substrate protein remaining % ≤ 80%) | A (0% ≤ substrate protein remaining % ≤ 80%) | < 500 | A (0% ≤ substrate protein remaining % ≤ 80%) | 5 to 10 | A (0% ≤ substrate protein remaining % ≤ 80%) | – | A (0% ≤ substrate protein remaining % ≤ 80%) | A (0% ≤ substrate protein remaining % ≤ 80%) | – | – | 10 to 50
8 | O=C1CCC(N2Cc3cc(CN4CCN(c5nc(N6CCCCC6)nc6c5SCC6)CC4)ccc3C2=O)C(=O)N1 (stereo not drawn) [GT-05380, 3-(1-oxo-5-((4-(2-(piperidin-1-yl)-6,7-dihydrothieno[3,2-d]pyrimidin-4-yl)piperazin-1-yl)methyl)isoindolin-2-yl)piperidine-2,6-dione] | A (0% ≤ substrate protein remaining % ≤ 80%) | A (0% ≤ substrate protein remaining % ≤ 80%) | 500 to 1000 | A (0% ≤ substrate protein remaining % ≤ 80%) | 1 to 5 | A (0% ≤ substrate protein remaining % ≤ 80%) | – | A (0% ≤ substrate protein remaining % ≤ 80%) | A (0% ≤ substrate protein remaining % ≤ 80%) | – | – | 10 to 50
